From article PMC9186362, “Design and biological evaluation of substituted 5,7-dihydro-6H-indolo[2,3-c]quinolin-6-one as novel selective Haspin inhibitors” (Journal of Enzyme Inhibition and Medicinal Chemistry, 2022)

Legend:
Assay in all cases: SelectScreen ZLYTE
Assay type in all cases: biochemical
ABL1 F317L = biological target: T1, ABL1 F317L (Homo sapiens, UniProt P00519, F317L); settings: ATP Km, read-out: Percentage of inhibition
T1 construct: purchased Life Technologies (SelectScreen)
Method in brief: (§1)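 Broad panel profiling: one dose (1 μM), results reported as % activity lost relative to uninhibited kinase.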

ABL1 G250E = biological target: T2, ABL1 G250E (Homo sapiens, UniProt P00519, G250E); settings: ATP Km, read-out: Percentage of inhibition
T2 construct: purchased Life Technologies (SelectScreen Whole Panel service)
Method in brief: as §1

ADRBK2 (GRK3) = biological target: T3, ADRBK2 (GRK3) (Homo sapiens, UniProt P35626); settings: ATP Km, read-out: Percentage of inhibition
T3 construct: purchased Life Technologies (SelectScreen Whole Panel)
Method in brief: as §1

AMPK (A1/B2/G3) = AMPK (A1/B2/G3) (Homo sapiens, UniProt Q13131); settings: ATP Km, read-out: Percentage of inhibition
Method in brief: as §1

AMPK (A2/B1/G2) = AMPK (A2/B1/G2) (Homo sapiens, UniProt P54646); settings: ATP Km, read-out: Percentage of inhibition
Method in brief: as §1

AURKA (Aurora A) = AURKA (Aurora A) (Homo sapiens, UniProt O14965); settings: ATP Km, read-out: Percentage of inhibition
AURKA (Aurora A), sequence (O14965 whole entry): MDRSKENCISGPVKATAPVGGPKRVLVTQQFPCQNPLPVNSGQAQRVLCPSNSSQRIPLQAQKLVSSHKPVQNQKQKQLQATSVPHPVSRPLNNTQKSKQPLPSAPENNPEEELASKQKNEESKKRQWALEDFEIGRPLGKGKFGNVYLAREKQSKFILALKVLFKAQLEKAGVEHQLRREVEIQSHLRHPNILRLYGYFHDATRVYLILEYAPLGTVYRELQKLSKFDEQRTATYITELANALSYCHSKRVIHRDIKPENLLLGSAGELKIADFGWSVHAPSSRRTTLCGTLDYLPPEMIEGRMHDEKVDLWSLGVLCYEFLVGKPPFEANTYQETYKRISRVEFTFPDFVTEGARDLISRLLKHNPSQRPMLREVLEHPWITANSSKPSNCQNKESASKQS
Method in brief: as §1

BMX = BMX (Homo sapiens, UniProt P51813); settings: ATP Km, read-out: Percentage of inhibition
BMX, sequence (P51813 whole entry): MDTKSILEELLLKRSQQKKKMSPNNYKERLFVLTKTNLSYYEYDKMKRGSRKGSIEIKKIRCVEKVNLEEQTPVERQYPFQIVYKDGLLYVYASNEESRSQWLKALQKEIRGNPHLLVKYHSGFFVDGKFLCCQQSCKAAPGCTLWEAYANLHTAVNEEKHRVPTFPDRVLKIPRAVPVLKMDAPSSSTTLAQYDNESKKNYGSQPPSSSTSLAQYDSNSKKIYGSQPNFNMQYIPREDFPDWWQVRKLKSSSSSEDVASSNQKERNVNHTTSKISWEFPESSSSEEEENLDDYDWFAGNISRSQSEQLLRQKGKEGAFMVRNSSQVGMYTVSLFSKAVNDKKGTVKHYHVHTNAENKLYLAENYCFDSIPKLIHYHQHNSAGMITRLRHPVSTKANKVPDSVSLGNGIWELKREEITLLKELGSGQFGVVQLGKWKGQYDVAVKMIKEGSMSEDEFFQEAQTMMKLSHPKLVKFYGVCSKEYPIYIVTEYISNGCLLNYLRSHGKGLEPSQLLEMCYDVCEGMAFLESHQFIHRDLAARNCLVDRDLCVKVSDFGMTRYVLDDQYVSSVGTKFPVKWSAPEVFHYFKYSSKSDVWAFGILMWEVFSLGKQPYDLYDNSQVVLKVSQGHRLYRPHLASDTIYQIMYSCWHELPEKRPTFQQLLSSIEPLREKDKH
Method in brief: as §1

CAMK1D (CaMKI delta) = biological target: T4, CAMK1D (CaMKI delta) (Homo sapiens, UniProt Q8IU85); settings: ATP Km, read-out: Percentage of inhibition
T4 construct: purchased Life Technologies (SelectScreen)
Method in brief: as §1

CDK5/p25 = biological target: T5, CDK5/p25 (Homo sapiens, UniProt Q00535); settings: ATP Km, read-out: Percentage of inhibition
T5 construct: purchased Life Technologies
Method in brief: as §1

CLK3 = CLK3 (Homo sapiens, UniProt P49761); settings: ATP Km, read-out: Percentage of inhibition
Method in brief: as §1

CSNK1A1 (CK1 alpha 1) = biological target: T6, CSNK1A1 (CK1 alpha 1) (Homo sapiens, UniProt P48729); settings: ATP Km, read-out: Percentage of inhibition
T6 construct: purchased Life Technologies (SelectScreen Whole Panel)
T6 sequence (P48729 whole entry): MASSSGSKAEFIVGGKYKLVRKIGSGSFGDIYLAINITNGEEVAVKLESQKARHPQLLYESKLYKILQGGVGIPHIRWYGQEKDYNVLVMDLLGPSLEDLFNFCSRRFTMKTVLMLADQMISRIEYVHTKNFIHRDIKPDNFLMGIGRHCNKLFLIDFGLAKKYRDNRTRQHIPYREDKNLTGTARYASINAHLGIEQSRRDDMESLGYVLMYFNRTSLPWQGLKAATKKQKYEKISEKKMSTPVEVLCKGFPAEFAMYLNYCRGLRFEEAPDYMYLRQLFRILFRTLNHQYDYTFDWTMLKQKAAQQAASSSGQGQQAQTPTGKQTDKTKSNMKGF
Method in brief: as §1

CSNK1A1L = CSNK1A1L (Homo sapiens, UniProt Q8N752); settings: ATP Km, read-out: Percentage of inhibition
Method in brief: as §1

CSNK1D (CK1 delta) = biological target: T7, CSNK1D (CK1 delta) (Homo sapiens, UniProt P48730); settings: ATP Km, read-out: Percentage of inhibition
T7 construct: purchased Life Technologies (SelectScreen service)
Method in brief: as §1

EEF2K = biological target: T8, EEF2K (Homo sapiens, UniProt O00418); settings: ATP Km, read-out: Percentage of inhibition
T8 construct: purchased Life Technologies (SelectScreen)
Method in brief: as §1

FGFR3 = biological target: T9, FGFR3 (Homo sapiens, UniProt P22607); settings: ATP Km, read-out: Percentage of inhibition
T9 construct: purchased Life Technologies
T9 sequence (P22607 23-806): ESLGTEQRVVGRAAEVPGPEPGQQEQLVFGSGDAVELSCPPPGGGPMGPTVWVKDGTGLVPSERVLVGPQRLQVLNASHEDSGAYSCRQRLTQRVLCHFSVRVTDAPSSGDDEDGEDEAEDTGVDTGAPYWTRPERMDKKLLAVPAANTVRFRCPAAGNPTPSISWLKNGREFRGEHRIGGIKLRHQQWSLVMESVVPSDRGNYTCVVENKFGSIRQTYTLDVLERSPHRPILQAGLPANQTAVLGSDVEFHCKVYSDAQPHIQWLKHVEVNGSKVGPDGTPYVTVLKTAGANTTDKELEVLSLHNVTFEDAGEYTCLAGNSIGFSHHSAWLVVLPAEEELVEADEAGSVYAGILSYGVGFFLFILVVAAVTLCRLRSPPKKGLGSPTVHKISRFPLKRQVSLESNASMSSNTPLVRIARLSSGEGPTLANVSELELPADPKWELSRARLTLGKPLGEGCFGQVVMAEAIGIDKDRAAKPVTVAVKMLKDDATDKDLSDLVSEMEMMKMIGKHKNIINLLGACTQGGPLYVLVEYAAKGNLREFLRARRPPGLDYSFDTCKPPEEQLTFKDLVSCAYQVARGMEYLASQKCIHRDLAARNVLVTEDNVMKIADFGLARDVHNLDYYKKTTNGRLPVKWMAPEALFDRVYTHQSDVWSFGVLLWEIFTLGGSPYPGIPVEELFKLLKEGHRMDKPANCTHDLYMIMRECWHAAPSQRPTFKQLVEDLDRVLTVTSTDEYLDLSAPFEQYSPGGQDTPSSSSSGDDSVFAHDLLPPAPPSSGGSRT
Method in brief: as §1

FGR = biological target: T10, FGR (Homo sapiens, UniProt P09769); settings: ATP Km, read-out: Percentage of inhibition
T10 construct: purchased Life Technologies (SelectScreen service)
Method in brief: as §1

FRAP1 (mTOR) = FRAP1 (mTOR) (Homo sapiens, UniProt P42345); settings: ATP Km, read-out: Percentage of inhibition
Method in brief: as §1

GSK3B (GSK3 beta) = biological target: T11, GSK3B (GSK3 beta) (Homo sapiens, UniProt P49841); settings: ATP Km, read-out: Percentage of inhibition
T11 construct: purchased Life Technologies (SelectScreen service)
Method in brief: as §1

IKBKB (IKK beta) = biological target: T12, IKBKB (IKK beta) (Homo sapiens, UniProt O14920); settings: ATP Km, read-out: Percentage of inhibition
T12 construct: purchased Life Technologies (SelectScreen Whole Panel)
Method in brief: as §1

KIT V559D V654A = KIT V559D V654A (Homo sapiens, UniProt P10721, V559D/V654A); settings: ATP Km, read-out: Percentage of inhibition
Method in brief: as §1

MAP2K1 (MEK1) = biological target: T13, MAP2K1 (MEK1) (Homo sapiens, UniProt Q02750); settings: ATP 100 µM, read-out: Percentage of inhibition
T13 construct: purchased Life Technologies (SelectScreen Whole Panel)
Method in brief: as §1

MAP4K5 (KHS1) = biological target: T14, MAP4K5 (KHS1) (Homo sapiens, UniProt Q9Y4K4); settings: ATP Km, read-out: Percentage of inhibition
T14 construct: purchased Life Technologies (SelectScreen service)
Method in brief: as §1

MAPK12 (p38 gamma) = MAPK12 (p38 gamma) (Homo sapiens, UniProt P53778); settings: ATP Km, read-out: Percentage of inhibition
Method in brief: as §1

MAPK9 (JNK2) = biological target: T15, MAPK9 (JNK2) (Homo sapiens, UniProt P45984); settings: ATP 100 µM, read-out: Percentage of inhibition
T15 construct: purchased Life Technologies (SelectScreen service)
T15 sequence (P45984 whole entry): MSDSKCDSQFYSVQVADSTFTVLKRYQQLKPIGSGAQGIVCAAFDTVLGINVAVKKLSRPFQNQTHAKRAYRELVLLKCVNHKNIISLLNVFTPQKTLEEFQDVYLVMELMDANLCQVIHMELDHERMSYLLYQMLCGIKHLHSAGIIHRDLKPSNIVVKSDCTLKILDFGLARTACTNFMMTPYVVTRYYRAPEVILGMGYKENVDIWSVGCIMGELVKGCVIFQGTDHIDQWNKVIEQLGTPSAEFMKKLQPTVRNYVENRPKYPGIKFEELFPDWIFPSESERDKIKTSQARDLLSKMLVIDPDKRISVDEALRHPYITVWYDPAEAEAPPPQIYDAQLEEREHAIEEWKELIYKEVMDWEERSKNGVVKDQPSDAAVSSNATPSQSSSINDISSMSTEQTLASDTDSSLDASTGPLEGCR
Method in brief: as §1

MET (cMet) = MET (cMet) (Homo sapiens, UniProt P08581); settings: ATP Km, read-out: Percentage of inhibition
Method in brief: as §1

MET (cMet) Y1235D = biological target: T16, MET (cMet) Y1235D (Homo sapiens, UniProt P08581, Y1235D); settings: ATP Km, read-out: Percentage of inhibition
T16 construct: purchased Life Technologies
Method in brief: as §1

NEK1 = biological target: T17, NEK1 (Homo sapiens, UniProt Q96PY6); settings: ATP Km, read-out: Percentage of inhibition
T17 construct: purchased Life Technologies (SelectScreen Whole Panel service)
Method in brief: as §1

NTRK1 (TRKA) = NTRK1 (TRKA) (Homo sapiens, UniProt P04629); settings: ATP Km, read-out: Percentage of inhibition
Method in brief: as §1

PLK2 = biological target: T18, PLK2 (Homo sapiens, UniProt Q9NYY3); settings: ATP Km, read-out: Percentage of inhibition
T18 construct: purchased Life Technologies (SelectScreen service)
Method in brief: as §1

PRKCB1 (PKC beta I) = biological target: T19, PRKCB1 (PKC beta I) (Homo sapiens, UniProt P05771); settings: ATP Km, read-out: Percentage of inhibition
T19 construct: purchased Life Technologies (SelectScreen)
T19 sequence (P05771 whole entry): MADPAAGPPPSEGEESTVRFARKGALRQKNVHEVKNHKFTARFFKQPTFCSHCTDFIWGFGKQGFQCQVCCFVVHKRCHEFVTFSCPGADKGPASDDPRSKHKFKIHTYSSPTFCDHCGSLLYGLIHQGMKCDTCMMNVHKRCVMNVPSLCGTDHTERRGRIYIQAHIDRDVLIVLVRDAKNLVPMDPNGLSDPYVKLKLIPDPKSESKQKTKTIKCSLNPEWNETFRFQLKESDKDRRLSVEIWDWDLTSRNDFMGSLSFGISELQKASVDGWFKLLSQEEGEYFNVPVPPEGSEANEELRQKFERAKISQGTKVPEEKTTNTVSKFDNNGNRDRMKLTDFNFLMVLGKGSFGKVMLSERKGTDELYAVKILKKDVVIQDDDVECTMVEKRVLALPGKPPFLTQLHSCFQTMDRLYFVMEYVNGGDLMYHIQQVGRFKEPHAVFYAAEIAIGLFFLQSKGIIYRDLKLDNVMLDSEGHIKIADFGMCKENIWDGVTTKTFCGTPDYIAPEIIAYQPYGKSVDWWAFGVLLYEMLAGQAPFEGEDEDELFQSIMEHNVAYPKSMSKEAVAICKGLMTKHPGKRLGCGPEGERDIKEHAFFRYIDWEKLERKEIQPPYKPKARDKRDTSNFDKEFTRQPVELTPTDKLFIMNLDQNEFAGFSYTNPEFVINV
Method in brief: as §1

PRKCE (PKC epsilon) = biological target: T20, PRKCE (PKC epsilon) (Homo sapiens, UniProt Q02156); settings: ATP Km, read-out: Percentage of inhibition
T20 construct: purchased Life Technologies (SelectScreen Whole Panel service)
Method in brief: as §1

RAF1 (cRAF) Y340D Y341D = biological target: T21, RAF1 (cRAF) Y340D Y341D (Homo sapiens, UniProt P04049, Y340D/Y341D); settings: ATP 100 µM, read-out: Percentage of inhibition
T21 construct: purchased Life Technologies
Method in brief: as §1

RET S891A = biological target: T22, RET S891A (Homo sapiens, UniProt P07949, S891A); settings: ATP Km, read-out: Percentage of inhibition
T22 construct: purchased Life Technologies
T22 sequence (P07949 29-1114 S891A): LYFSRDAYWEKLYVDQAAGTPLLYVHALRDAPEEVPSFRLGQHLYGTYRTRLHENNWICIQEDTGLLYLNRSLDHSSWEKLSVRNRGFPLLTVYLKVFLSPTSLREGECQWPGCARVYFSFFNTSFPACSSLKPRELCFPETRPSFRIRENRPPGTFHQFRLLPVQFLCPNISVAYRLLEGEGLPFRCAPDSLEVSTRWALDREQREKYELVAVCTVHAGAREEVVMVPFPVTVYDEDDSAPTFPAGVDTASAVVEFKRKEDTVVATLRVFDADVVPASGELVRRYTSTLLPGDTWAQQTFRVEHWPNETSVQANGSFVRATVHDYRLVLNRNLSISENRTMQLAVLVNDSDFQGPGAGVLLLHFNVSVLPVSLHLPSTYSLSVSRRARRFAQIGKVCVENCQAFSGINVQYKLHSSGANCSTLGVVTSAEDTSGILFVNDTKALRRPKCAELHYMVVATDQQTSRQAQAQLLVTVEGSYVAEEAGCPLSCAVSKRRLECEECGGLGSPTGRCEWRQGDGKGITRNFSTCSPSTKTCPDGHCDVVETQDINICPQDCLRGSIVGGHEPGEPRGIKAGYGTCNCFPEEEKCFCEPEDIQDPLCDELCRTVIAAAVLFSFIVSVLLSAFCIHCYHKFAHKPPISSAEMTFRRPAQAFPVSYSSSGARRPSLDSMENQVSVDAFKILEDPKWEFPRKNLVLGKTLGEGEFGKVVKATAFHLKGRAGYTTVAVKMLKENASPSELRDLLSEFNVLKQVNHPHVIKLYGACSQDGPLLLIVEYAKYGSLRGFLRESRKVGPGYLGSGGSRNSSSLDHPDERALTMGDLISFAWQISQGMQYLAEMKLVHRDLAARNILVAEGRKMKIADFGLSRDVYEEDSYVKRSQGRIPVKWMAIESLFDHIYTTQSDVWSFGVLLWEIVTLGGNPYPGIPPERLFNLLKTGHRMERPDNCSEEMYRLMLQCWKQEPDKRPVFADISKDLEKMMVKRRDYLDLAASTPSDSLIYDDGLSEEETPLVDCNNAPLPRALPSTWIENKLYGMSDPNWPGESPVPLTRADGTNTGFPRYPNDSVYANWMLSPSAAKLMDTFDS
Method in brief: as §1

SRC = biological target: T23, SRC (Homo sapiens, UniProt P12931); settings: ATP Km, read-out: Percentage of inhibition
T23 construct: purchased Life Technologies
T23 sequence (P12931 whole entry): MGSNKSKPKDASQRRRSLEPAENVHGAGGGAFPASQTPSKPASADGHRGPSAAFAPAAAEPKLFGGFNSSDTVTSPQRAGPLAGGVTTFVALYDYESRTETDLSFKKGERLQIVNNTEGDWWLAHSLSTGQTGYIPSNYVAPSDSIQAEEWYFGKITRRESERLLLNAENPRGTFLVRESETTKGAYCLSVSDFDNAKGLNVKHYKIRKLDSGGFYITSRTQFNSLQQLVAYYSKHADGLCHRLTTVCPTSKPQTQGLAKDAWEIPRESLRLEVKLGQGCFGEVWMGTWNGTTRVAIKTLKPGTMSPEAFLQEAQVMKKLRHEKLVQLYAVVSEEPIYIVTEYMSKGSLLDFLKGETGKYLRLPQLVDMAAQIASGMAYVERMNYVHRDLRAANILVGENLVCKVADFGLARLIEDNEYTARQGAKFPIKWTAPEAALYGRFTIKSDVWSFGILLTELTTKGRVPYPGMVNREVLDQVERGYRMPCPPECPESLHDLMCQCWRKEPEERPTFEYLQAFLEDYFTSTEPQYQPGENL
Method in brief: as §1

STK22B (TSSK2) = biological target: T24, STK22B (TSSK2) (Homo sapiens, UniProt Q96PF2); settings: ATP Km, read-out: Percentage of inhibition
T24 construct: purchased Life Technologies
Method in brief: as §1

STK25 (YSK1) = biological target: T25, STK25 (YSK1) (Homo sapiens, UniProt O00506); settings: ATP Km, read-out: Percentage of inhibition
T25 construct: purchased Life Technologies (SelectScreen Whole Panel service)
Method in brief: as §1

SYK = biological target: T26, SYK (Homo sapiens, UniProt P43405); settings: ATP Km, read-out: Percentage of inhibition
T26 construct: purchased Life Technologies (SelectScreen service)
Method in brief: as §1

TNK1 = biological target: T27, TNK1 (Homo sapiens, UniProt Q13470); settings: ATP Km, read-out: Percentage of inhibition
T27 construct: purchased Life Technologies
Method in brief: as §1

COc1ccc2[nH]c3c(=O)[nH]c4ccc(O)cc4c3c2c1 [Compound 55, 2-Hydroxy-10-methoxy-5,7-dihydro-6H-indolo[2,3-c]quinolin-6-one]
inhibition at 1 µM (ABL1 F317L): 9%
inhibition at 1 µM (ABL1 G250E): 48%
inhibition at 1 µM (ADRBK2 (GRK3)): 0%
inhibition at 1 µM (AMPK (A1/B2/G3)): 67%
inhibition at 1 µM (AMPK (A2/B1/G2)): 63%
inhibition at 1 µM (AURKA (Aurora A)): 58%
inhibition at 1 µM (BMX): 14%
inhibition at 1 µM (CAMK1D (CaMKI delta)): 8%
inhibition at 1 µM (CDK5/p25): 33%
inhibition at 1 µM (CLK3): 57%
inhibition at 1 µM (CSNK1A1 (CK1 alpha 1)): 51%
inhibition at 1 µM (CSNK1A1L): 62%
inhibition at 1 µM (CSNK1D (CK1 delta)): 81%
inhibition at 1 µM (EEF2K): 7%
inhibition at 1 µM (FGFR3): 3%
inhibition at 1 µM (FGR): 81%
inhibition at 1 µM (FRAP1 (mTOR)): 6%
inhibition at 1 µM (GSK3B (GSK3 beta)): 81%
inhibition at 1 µM (IKBKB (IKK beta)): 55%
inhibition at 1 µM (KIT V559D V654A): 19%
inhibition at 1 µM (MAP2K1 (MEK1)): 98%
inhibition at 1 µM (MAP4K5 (KHS1)): 90%
inhibition at 1 µM (MAPK12 (p38 gamma)): 19%
inhibition at 1 µM (MAPK9 (JNK2)): 12%
inhibition at 1 µM (MET (cMet)): 7%
inhibition at 1 µM (MET (cMet) Y1235D): 2%
inhibition at 1 µM (NEK1): 17%
inhibition at 1 µM (NTRK1 (TRKA)): 69%
inhibition at 1 µM (PLK2): 74%
inhibition at 1 µM (PRKCB1 (PKC beta I)): 8%
inhibition at 1 µM (PRKCE (PKC epsilon)): 10%
inhibition at 1 µM (RAF1 (cRAF) Y340D Y341D): 94%
inhibition at 1 µM (RET S891A): 96%
inhibition at 1 µM (SRC): 37%
inhibition at 1 µM (STK22B (TSSK2)): 5%
inhibition at 1 µM (STK25 (YSK1)): 19%
inhibition at 1 µM (SYK): 82%
inhibition at 1 µM (TNK1): 30%
